Experimental data: PubChem BioAssay (NCI)
Values joined by “and” are separate entries in the source; they are usually repeats but may differ in a detail not shown here. Equal entries are not always repeated.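 How tested: cells in 96-well plates exposed to compound for 48 hours at five concentrations. GI50 marks 50% less growth. TGI: total growth inhibition.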

Experiments:
Assay in all cases: NCI anticancer screen, dose series, 48 h
NCI/ADR-RES ovarian = system: NCI/ADR-RES ovarian
SW-620 colon = system: SW-620 colon
NCI-H23 lung = system: NCI-H23 lung
DU-145 prostate = system: DU-145 prostate
MALME-3M melanoma = system: MALME-3M melanoma
HCT-116 colon = system: HCT-116 colon
OVCAR-8 ovarian = system: OVCAR-8 ovarian
NCI-H226 lung = system: NCI-H226 lung
COLO 205 colon = system: COLO 205 colon
PC-3 prostate = system: PC-3 prostate

Row | Compound | GI50 (NCI/ADR-RES ovarian) | TGI (NCI/ADR-RES ovarian) | GI50 (SW-620 colon) | TGI (SW-620 colon) | GI50 (NCI-H23 lung) | TGI (NCI-H23 lung) | GI50 (DU-145 prostate) | TGI (DU-145 prostate) | GI50 (MALME-3M melanoma) | TGI (MALME-3M melanoma) | GI50 (HCT-116 colon) | TGI (HCT-116 colon) | GI50 (OVCAR-8 ovarian) | TGI (OVCAR-8 ovarian) | GI50 (NCI-H226 lung) | TGI (NCI-H226 lung) | GI50 (COLO 205 colon) | TGI (COLO 205 colon) | GI50 (PC-3 prostate) | TGI (PC-3 prostate)
1 | O=C(Oc1ccc[nH]c1=O)c1cc([N+](=O)[O-])cc([N+](=O)[O-])c1 | > 100 µM | > 100 µM | 99 µM | > 100 µM | > 100 µM | > 100 µM | > 100 µM | > 100 µM | 51.7 µM | > 100 µM | > 100 µM | > 100 µM | > 100 µM | > 100 µM | > 100 µM | > 100 µM | > 100 µM | > 100 µM | > 100 µM | > 100 µM
2 | CNC(=O)OCc1nc(SSC(C)(C)C)n(C)c1COC(=O)NC | – | 20.3 µM | – | 3.67 µM | – | 8.11 µM | – | 33.3 µM | – | 3.76 µM | – | 3.26 µM | – | 5.35 µM | – | 28.3 µM | – | 3.28 µM | – | 21 µM
3 | O=C(NC(=O)c1c(F)cccc1F)Nc1cccc(Oc2ncc(Cl)cn2)c1 | – | > 100 µM | – | > 100 µM | – | > 100 µM | – | > 100 µM | – | > 100 µM | – | > 100 µM | – | > 100 µM | – | > 100 µM | – | > 100 µM | – | > 100 µM
4 | Cc1cc(N(CC(C)Br)CC(C)Br)ccc1N=Nc1ccccc1C(=O)O (stereo not drawn) | – | > 100 µM | – | > 84.1 µM | – | 18.1 µM | – | 20 µM | – | 18.6 µM | – | 20.3 µM | – | > 52.4 µM | – | 13.3 µM | – | 19.7 µM | – | 30 µM
5 | N[C@H](C(=O)O)[C@@H]1CC(Cl)=NO1 | 37.7 µM | 530 µM | 7.48 µM | > 1000 µM | 38.2 µM | > 1000 µM | 99.6 µM | > 1000 µM | – | 542 µM | 3.71 µM | > 1000 µM | 22.2 µM | 502 µM | 39.9 µM and 10.8 µM | > 316 µM | 43.6 µM | > 1000 µM | 11.5 µM | > 1000 µM
6 | CCOc1cc(C(C)(C)C)ccc1C1=N[C@H](c2ccc(Cl)cc2)[C@H](c2ccc(Cl)cc2)N1C(=O)N1CCN(CC#Cc2cccc3c2CN([C@@H]2CCC(=O)NC2=O)C3=O)CC1 | 1.79 µM | > 100 µM | 0.143 µM | > 100 µM | 8.14 µM | > 100 µM | 4.87 µM | > 100 µM | 0.0331 µM | 0.778 µM | 1.97 µM | > 36.3 µM | 0.157 µM | > 31.8 µM | 0.112 µM | 4.33 µM | 0.472 µM | – | 0.085 µM | 18.4 µM
7 | O=C(/C=C/c1ccccc1)Nc1ncc(Cc2ccccc2Cl)s1 | 0.325 µM | > 100 µM | 0.413 µM | > 100 µM | 0.708 µM | > 100 µM | 0.41 µM | > 100 µM | 0.365 µM | > 100 µM | 0.375 µM | > 100 µM | 0.509 µM | > 100 µM | 0.35 µM | > 100 µM | 0.366 µM | > 100 µM | 0.409 µM | > 100 µM
8 | CCN(CC)CCCC(CCl)Nc1ccnc2cc(Cl)ccc12 (stereo not drawn) | 25.2 µM and 23.1 µM | 57.3 µM and 67.7 µM | 22.5 µM and 33.5 µM | 54.4 µM and > 100 µM | 17.9 µM and 22.1 µM | 38.3 µM and > 60.2 µM | 49.6 µM and 47.1 µM | > 100 µM | 8.53 µM and 4.95 µM | 21.1 µM and 20.1 µM | 9.81 µM and 6.94 µM | 25.2 µM and 30.4 µM | 20.2 µM and 19.4 µM | 54.8 µM and 71.3 µM | 34.7 µM and 3.99 µM | 85.2 µM and > 39.1 µM | 29.5 µM and 15.1 µM | > 100 µM | 27.2 µM and 34.9 µM | > 100 µM
9 | O=C1C(=O)c2ccccc2C(O)=C1C(C1=C(O)c2ccccc2C(=O)C1=O)c1ccc(Cl)cc1 | – | > 77.5 µM | – | > 73.7 µM | – | 27.8 µM | – | 10.3 µM | – | 12 µM | – | 18.2 µM | – | 30.1 µM | – | 52.9 µM | – | 35.6 µM | – | 57.7 µM
10 | CC1(C)N=C(N)N=C(N)N1c1ccc(CCC(=O)Nc2ccc(S(=O)(=O)F)cc2)c(Cl)c1 | > 100 µM | > 100 µM | 0.144 µM | > 100 µM | 0.888 µM | > 100 µM | 0.593 µM | > 100 µM | 19.9 µM | > 100 µM | 0.268 µM | > 100 µM | 4.66 µM | > 100 µM | 14.4 µM | > 100 µM | 2.52 µM | > 100 µM | 0.0926 µM | 49.7 µM
11 | CCOc1cccc(/C=N/NC(=O)c2cccc(Nc3ccnc(C(F)(F)F)c3)c2)c1O | 3.02 µM | 27.8 µM | 3.04 µM | > 88.7 µM | 1.62 µM | 20.8 µM | 1.1 µM | > 47.3 µM | 1.82 µM | 18.9 µM | 0.477 µM | > 69.4 µM | 1.12 µM | 37 µM | 0.827 µM | 9.82 µM | 0.532 µM | 18.4 µM | 3.28 µM | > 92.8 µM
12 | CN(C)Cc1cc(C(F)(F)F)ccc1C(O)(c1ccccc1)c1ccccc1 | – | 30.4 µM | – | 41 µM | – | 79.3 µM | – | > 100 µM | – | 33.9 µM | – | 26.8 µM | – | 35.8 µM | – | 31.1 µM | – | 20.8 µM | – | 36 µM
13 | Cc1ccc(S(=O)(=O)N=Nc2c(O)[nH]c3cc(O)c(C(=O)O)cc23)cc1 | – | > 100 µM | – | > 100 µM | – | > 100 µM | – | > 100 µM | – | > 100 µM | – | > 100 µM | – | > 100 µM | – | > 100 µM | – | > 100 µM | – | > 100 µM
